Measurements as given in ChEMBL document CHEMBL1133302, “Use of proline bioisosteres in potential HIV protease inhibitors: phenylalanine-2-thiophenoxy-3-pyrrolidinone: synthesis and anti-HIV evaluation” (Bioorg Med Chem Lett, 2000).

What was measured:
[1] = Selective index is the ratio of CC50 to that of EC50 (CC50/EC50); assay type: functional
MT4 [2] = test: EC50 value was measured as concentration required to inhibit syncytia formation by 50% in MT-4 cells.; assay type: functional, cell-based; details: Homo sapiens
[3] = molecular target: T1, Human immunodeficiency virus type 1 protease (Human immunodeficiency virus 1, UniProt Q72874); test: Compound was evaluated for the inhibition of HIV-1 protease
MT4 [4] = test: CC50 value was measured as concentration required to cause 50% death of uninfected MT-4 cells.; assay type: functional; details: Homo sapiens
MT4 [5] = test: EC50 value was measured as concentration required to inhibit syncytia formation by 50% in MT-4 cells; NA-Nonactive at nontoxic concentration; assay type: functional, cell-based, Homo sapiens
[6] = molecular target: T1, Human immunodeficiency virus type 1 protease; test: Compound was evaluated for the inhibition of HIV-1 protease; NA-Nonactive at nontoxic concentration

**Q.** Which results are given for `CC(C)(C)OC(=O)N[C@@H](Cc1ccc(OCc2ccccc2)cc1)C(=O)N1CCC(=O)[C@H]1Sc1ccccc1`?
**A.** SI [1]: 500; EC50 (MT4 [2]): 0.1 µM; IC50 [3]: 0.02 µM; CC50 (MT4 [4]): 50 µM

**Q.** For `CC(C)(C)OC(=O)N[C@@H](Cc1ccccc1)C(=O)N1CCC(=O)[C@@H]1Sc1ccccc1`, which SI [1] is on record?
**A.** The SI was 2.

**Q.** And the EC50 (MT4 [2])?
**A.** The EC50 was 50 µM.

**Q.** And the IC50 [3]?
**A.** The IC50 was 1 µM.

**Q.** And the CC50 (MT4 [4])?
**A.** The CC50 was 100 µM.

**Q.** For `CC(C)(C)OC(=O)NC(Cc1ccccc1)C(=O)N1CCC(=O)C1Sc1ccccc1` (racemic), which EC50 (MT4 [5]) is on record?
**A.** Its EC50 is “Not Active”.

**Q.** And the IC50 [6]?
**A.** The IC50 was “Not Active”.

**Q.** And the CC50 (MT4 [4])?
**A.** The CC50 was over 100 µM.

**Q.** With `CC(C)(C)OC(=O)N[C@@H](Cc1ccc(O)cc1)C(=O)N1CCC(=O)[C@@H]1Sc1ccccc1` as the molecule, how does the SI [1] read?
**A.** The SI was over 2.

**Q.** What about the EC50 (MT4 [2]) of the same molecule?
**A.** The EC50 was 50 µM.

**Q.** What about the IC50 [3] of the same molecule?
**A.** Its IC50 is 0.025 µM.

**Q.** And the CC50 (MT4 [4])?
**A.** Its CC50 is over 100 µM.

**Q.** Which SI [1] does the source give for `CC(C)(C)OC(=O)N[C@@H](Cc1ccccc1)C(=O)N1CCC(=O)[C@H]1Sc1ccccc1` here?
**A.** Its SI is over 100.

**Q.** And the EC50 (MT4 [2])?
**A.** Its EC50 is 1 µM.

**Q.** What about the IC50 [3] of the same molecule?
**A.** Its IC50 is 0.008 µM.

**Q.** And the CC50 (MT4 [4])?
**A.** The CC50 was over 100 µM.

**Q.** What does the source list for `CC(C)(C)OC(=O)N[C@@H](Cc1ccc(OCc2ccccc2)cc1)C(=O)N1CCC(=O)[C@@H]1Sc1ccccc1`?
**A.** EC50 (MT4 [5]): Not Active; IC50 [3]: 0.02 µM; CC50 (MT4 [4]): 10 µM

**Q.** For `COc1ccc(C[C@H](NC(=O)OC(C)(C)C)C(=O)N2CCC(=O)[C@@H]2Sc2ccccc2)cc1`, which EC50 (MT4 [5]) is on record?
**A.** Its EC50 is “Not Active”.

**Q.** What about the IC50 [3] of the same molecule?
**A.** Its IC50 is 10 µM.

**Q.** And the CC50 (MT4 [4])?
**A.** Its CC50 is over 100 µM.

**Q.** With `COc1ccc(C[C@H](NC(=O)OC(C)(C)C)C(=O)N2CCC(=O)[C@H]2Sc2ccccc2)cc1` as the molecule, how does the EC50 (MT4 [5]) read?
**A.** The EC50 was “Not Active”.

**Q.** What about the IC50 [3] of the same molecule?
**A.** Its IC50 is 10 µM.

**Q.** And the CC50 (MT4 [4])?
**A.** Its CC50 is 50 µM.

**Q.** Which results are given for `CC(C)(C)OC(=O)N[C@@H](Cc1ccc(O)cc1)C(=O)N1CCC(=O)[C@H]1Sc1ccccc1`?
**A.** SI [1]: 500; EC50 (MT4 [2]): 0.1 µM; IC50 [3]: 0.026 µM; CC50 (MT4 [4]): 50 µM

**Q.** With `O=C(N[C@@H](Cc1ccccc1)C(=O)N1CCC(=O)C1Sc1ccccc1)c1ccc2ccccc2n1` (some centres undefined) as the molecule, how does the EC50 (MT4 [5]) read?
**A.** The EC50 was “Not Active”.

**Q.** What about the IC50 [3] of the same molecule?
**A.** The IC50 was 5 µM.

**Q.** What about the CC50 (MT4 [4]) of the same molecule?
**A.** The CC50 was 50 µM.

**Q.** Which results are given for `O=C(N[C@@H](Cc1ccccc1)C(=O)N1CCC(=O)C1Sc1ccccc1)c1cccnc1` (some centres undefined)?
**A.** SI [1]: 50; EC50 (MT4 [2]): 1 µM; IC50 [3]: 0.1 µM; CC50 (MT4 [4]): 50 µM
